The numbers were not newly measured in US20230364129A1, “TOPICAL COMPOSITIONS” (Prime Performance Research LLC, priority 2022, published 2023), which cites them from elsewhere.

In data set [1] the test system is hind paw oedema, synovitis and destruction of the articular cartilage. The note with it: orally administered; several animal studies (Volpi, 2011).
The subject of data set [2] is NF-κB transcription factor in antigen presenting cells.
For data set [3] the following is noted: carnosine 200 μmol/L; hydroxyl and/or peroxy-type radicals (Drafi, 2010).
In data set [4] the test system is human colorectal cancer cells. The conditions noted are these: by suppressing NF-κB/STAT1 signaling (Lee, 2018).

For the compound Chondroitin sulfate [CS], in data set [1], the “hind paw oedema, synovitis and destruction of the articular cartilage” value is reported as “significantly inhibited”. Besides, the “activation of the NF-κB transcription factor” value in data set [2] (antigen presenting cells (Zhang, 2015)) is “could activate”. For the same compound, the TNF-α production result in data set [2] (through the TLR/MyD88 pathway (Zhang, 2015)) was “induce TNF-α production”.

In the case of `NCCC(=O)N[C@@H](Cc1cnc[nH]1)C(=O)O` [carnosine, beta-alanyl-L-histidine], in data set [3], the “effect on hyaluronan degradation” value was “protective action”. Moreover, the “cell cycle arrest and apoptosis” value in data set [4] was “induces cell cycle arrest and apoptosis”.
